From patent publication US8101180B2, “Anti-IGF-IR and/or anti-insulin/IGF-I hybrid receptors antibodies and uses thereof” (Pierre Fabre Medicament, priority 2002, dated 2012)
“Also recorded” adds a separate entry of the source.

Experiments:
[1] = test system: MCF-7 cells; assay: IGF1-induced proliferation of MCF-7 cells (3H thymidine incorporation); format: cell-based, human; settings: antibody 10 μg/ml; IGF-I 1 to 50 ng/ml
Protocol: The cell proliferation is evaluated by following the incorporation of ^3H thymidine. The commercial antibody αIR3 is used as a positive control of the experiment.
The cell proliferation is estimated by following on the β counter the incorporation of tritiated thymidine by the cells. The results are expressed as a proliferative index.

[2] = test system: noninfected Sf9 insect cells; assay: FACS labeling of noninfected Sf9 insect cells; format: binding; settings: FACScan
Text: In FIG. 4B, Sf9 cells uniquely expressing IGF-IR are labeled with αIR3 (2) or anti-IR(3), the peak (1) representing the single cells. In FIG. 4C, Sf9 cells uniquely expressing IR are labeled with an anti-IR (3) or αIR3 (2), the peak (1) representing the single cells.
evaluating the supernatants of hybridomas positive in the two first screenings in terms of differential recognition of IGF-IR and of IR on insect cells infected with baculoviruses respectively expressing IGF-IR or IR,
For the immunization stage, mice were injected twice, by the subcutaneous route, with 8 μg of recombinant IGF-IR. Three days before the fusion of the cells of the […] with the cells of the murine myeloma Sp2OAg14, the mice were stimulated by an intravenous injection of 3 μg of the recombinant receptor. Fourteen days after the fusion, the supernatants of hybridomas were screened by ELISA, on plates sensitized by recombinant IGF-IR. The hybridomas whose supernatants were found positive were conserved and amplified before being tested on the FACScan so as to verify that the antibodies produced were likewise capable of recognizing native IGF-IR. In order to do this, MCF-7 cells from an estrogen-dependent tumor of the breast overexpressing IGF-IR were incubated with each of the culture supernatants produced by the hybridomas selected in ELISA. […]

[3] = test system: A549 tumor; assay: A549 non-small cell lung tumor subcutaneous xenograft; format: in vivo, nude mice; settings: s.c. xenograft; for inhibition of A549 tumor growth in vivo, murine versus humanized antibody: 125 μg/dose twice per week i.p.
Protocol: Navelbine is a chemotherapy compound indicated in non-small cell cancer of the lung and in metastatic cancer of the breast. […] For this study, 5·10^6 A549 cells were grafted subcutaneously on the right flank of the mouse. Five days after the cell graft, the tumors are measurable and the treatments with MAb and/or navelbine are commenced. The MAb dose is always 250 μg/dose/mouse, twice per week, intra-peritoneally. Concerning navelbine, it will be administered at the maximum dose tolerated by the mouse or 10 mg/kg, intraperitoneally. For this treatment three injections will be carried out at intervals of 7 days. During the coadministrations, the two products are mixed before injection.
For this study, nude mice are grafted s.c. with 5·10^6 A549 cells. Five days after the cell graft, the tumors are measured and a homogeneous batch of mice in terms of tumor volume is formed. Starting from this batch, groups of 6 mice are generated at random.
To do this, 5·10^6 A549 cells were implanted subcutaneously in nude mice. Five days after this implantation, the tumors were measured and groups of 6 mice were formed. […] This granule is essential to the establishment of any E2-dependent human tumor in this animal species.
These conjugates are administered according to the same modes as the groups given the chemotherapy compounds alone; • the animals of the control batch are given injections of PBS, administered according to the same frequency.
The weight of the mice and the tumor volume are evaluated twice a week. The tumor volumes are calculated according to the formula: ½ (length·width·height).

[4] = test system: MCF-7 tumor; assay: MCF-7 tumor growth in nude mice (subcutaneous xenograft); format: in vivo; settings: for inhibition of MCF-7 tumor growth in vivo, murine versus humanized antibody: 125 μg/dose twice a week i.p. (Example 36)
Protocol: The in vivo selection was carried out in an established tumor model. In order to do this, nude mice received a subcutaneous implant of slow-release estrogen, indispensable for the taking of the tumor in a murine model. Twenty-four hours after implantation of the estrogens, 5·10^6 MCF-7 cells are grafted onto the right flank of the mouse subcutaneously. Five days after this cell graft, the tumors are measurable and batches of 6 mice are formed at random. The treatment of the mice is carried out twice per week, during 5 to 6 weeks, at the dose of 250 μg/dose/mouse. In the control group, the mice are treated in the same fashion with a murine control isotype. […] Another non exclusive hypothesis could be the recognition by these antibodies of the atypical IGF-IR as described in the paper of Siddle et al., (Siddle et al., 1994, Horn Res. 41(suppl. 2):56-65).
The long-term use of tamoxifen is associated with a significant increase in the risk of endometrial cancer (Fisher et al., J. of National Cancer Institute, 86, 7:527-537, 1994; VIDAL 2000, 1975-1976) and of collateral recurrence of E2-independent cancer of the breast (Li C. I. et al., J. Natl. Cancer Inst., July 4, 93(13):1008-1013, 2001). […] In order to do this, 7·10^6 MCF-7 cells were implanted sc (subcutaneously) in nude mice, 24 hours after implantation in these same mice of a grain of estradiol with prolonged release (0.72 mg/tablet liberated over 60 days), indispensable for the establishment of any E2-dependent human tumor in this animal species. Five days after this implantation, the tumors are measured and groups of 6 mice are formed. […] The tamoxifen is administered daily for 4 weeks except at the weekend. […] A study was previously carried out in order to verify that the solvent alone is without influence on the tumor growth.
To do this, 5·10^6 A549 cells were implanted subcutaneously in nude mice. Five days after this implantation, the tumors were measured and groups of 6 mice were formed. […] In the MCF-7 breast tumor model, a sustained-release oestradiol granule (0.72 mg/tablet released over 60 days) is implanted subcutaneously 24 hours before implantation of the cells. This granule is essential to the establishment of any E2-dependent human tumor in this animal species.

[5] = test system: MCF-7 cells; assay: IGF2-induced proliferation of MCF-7 cells; format: cell-based, human; settings: IGF2 200 ng/ml; MAb 10 μg/ml
Protocol: As indicated above, IGF-IR is overexpressed by numerous tumors but it has furthermore been described that in a good part of the cancers of the breast and of the colon especially, the proliferation signal is given to this receptor via IGF2 (sometimes written IGF-II or IGFII). […] In order to do this, cells were inoculated into 96-well plates, deprived of fetal calf serum and stimulated by the addition of 200 ng of IGF2 per ml, final concentration, of medium, in the presence and in the absence of the MAb to be tested introduced at a concentration of 10 μg/ml.

[6] = test system: DU145 tumor; assay: DU145 androgen-independent prostate tumor xenograft; format: in vivo, nude mice; settings: 250 μg/dose/mouse twice per week i.p.
Protocol: In these 4 models, the treatment was carried out twice per week i.p. at a rate of 250 μg/dose/mouse.

[7] = 250 μg/dose/mouse twice per week i.p.

## 7C10: murine monoclonal anti-IGF-IR IgG1 secreted by the hybridoma deposited at the CNCM under the number I-2717
[1]
  inhibition of IGF1-induced proliferation of MCF-7 cells: significantly inhibits the growth
[2]
  MFI (Mean fluorescence intensity), Noninfected cells: 8.6
[3]
  inhibition of A549 tumor growth in vivo, murine versus humanized antibody: significant inhibition of the tumor growth
[3]; [7]
  inhibition of A549 tumor growth in vivo: significant activity; also recorded: as active as the conventional treatment with navelbine; also recorded: significant decrease in the tumor growth
[4]
  inhibition of MCF-7 tumor growth in vivo, murine versus humanized antibody: significant inhibition of tumor growth
[4]; [7]
  inhibition of MCF-7 tumor growth in vivo: very significant inhibition of the tumor growth; also recorded: significantly inhibiting the growth; also recorded: significantly more efficacious than tamoxifen
[5]
  inhibition of IGF2-induced growth of MCF-7 cells: totally inhibits the growth induced by IGF2; also recorded: significantly better than that of 1H7
[6]
  antitumor activity in DU145 model: significant activity

## h7C10: humanized 7C10 anti-IGF-IR antibody, isotype IgG1 (humanized 1 written 7H2HM)
[1]
  inhibition of IGF1-induced proliferation of MCF-7 cells: perfectly preserved their properties of inhibiting the IGF1-induced growth
[3]
  inhibition of A549 tumor growth in vivo, murine versus humanized antibody: exactly the same intensity as that observed with its murine counterpart
[4]
  inhibition of MCF-7 tumor growth in vivo, murine versus humanized antibody: exactly the same intensity as that observed with its murine counterpart
[4]; listed as 7H2HM
  inhibition of MCF-7 tumor growth in vivo, murine versus humanized antibody: perfectly comparable with the murine antibody 7C10
